Measured values from publication PMC11963559, “Identification of novel thiazole derivatives as flaviviral protease inhibitors effective against Dengue (DENV2) and Japanese encephalitis viruses” (Antimicrobial Agents and Chemotherapy, 2025).

Biological target: T1, DENV2 NS2B–NS3 protease (Dengue virus type 2, UniProt P14340)
T1 construct: Activity of recombinant dengue 2 virus NS3 protease in the presence of a truncated NS2B co-factor; The N-terminal domain of NS3 contains a highly conserved protease-active core; made in house; host or cells: Escherichia coli BL21(DE3)
Experiment: In vitro DENV2 NS2B/NS3pro inhibition assay using a FRET substrate
Type: biochemical
Settings: 5 µM substrate, 10 nM NS2b-NS3pro, compounds at 1, 10 and 100 µM, 1 h at RT; compounds 3s-3an
Procedure: To assess the anti-DENV NS2B–NS3 activity of the compounds, we expressed the DENV2 NS2B–NS3 protease in BL21DE3 cells and subsequently purified it using Ni-NTA affinity chromatography, as outlined in Materials and Methods ([39], [40]). The protease activity assay was performed using different concentrations (1, 2.5, 5, 10, 25, 50, 75, and 100 µM) of a fluorogenic substrate (Abs-Nle-Lys-Arg-Arg-Ser-3-(NO2)Tyr) at various time points (5, 15, 30, 45, and 60 min), as described previously ([39], [41]). […] Therefore, all subsequent assays were conducted with a 1 h incubation time.
The selected compounds were analyzed using in vitro protease assays performed in black 96-well plates. […] All assays were performed in triplicate. The release of free AMC was measured using a Varioskan LUX multimode microplate reader (Thermo Fisher Scientific) at excitation and emission wavelengths of 380 and 460 nm, respectively. Control fluorescence values obtained in the absence of inhibitors were considered 100%, and those obtained in the presence of inhibitors were calculated as the percentage of inhibition of the control using Microsoft Excel and plotted using Origin Pro 2023b. The background AMC in the absence of protease was subtracted before data analysis. Further, protease assay was done using different concentration of the compounds (1, 10, and 100 µM) to evaluate the IC50 for the in vitro assay. IC50 curves were fitted and determined by fitting the nonlinear equation in Origin2023b software. A similar approach was used to analyze the enzymatic kinetics of protease inhibition. The reaction progress was monitored by the release of free aminomethylcoumarin (AMC), as previously described. The substrate was incubated with or without the inhibitor in the aforementioned reaction buffer in the presence of varying concentrations of the substrate. The reactions were initiated by the addition of the NS2B–NS3 protease. Protease activity was monitored for 1 h based on the initial rate of increase in fluorescence intensity at 460 nm, with an excitation wavelength of 380 nm. The results were analyzed using Origin Pro 2023b and the Michaelis–Menten equation to obtain the apparent Michaelis–Menten constants and maximal velocities. All assays were performed in triplicate. For each tested compound, two different concentrations of the inhibitor (0, 10, and 25 µM) were used at various concentrations (0–250 μM) of the substrate. The mechanism of inhibition was determined by observing the deviations in the apparent Km and Vmax values.

T1 sequence (P14340 1476-1653): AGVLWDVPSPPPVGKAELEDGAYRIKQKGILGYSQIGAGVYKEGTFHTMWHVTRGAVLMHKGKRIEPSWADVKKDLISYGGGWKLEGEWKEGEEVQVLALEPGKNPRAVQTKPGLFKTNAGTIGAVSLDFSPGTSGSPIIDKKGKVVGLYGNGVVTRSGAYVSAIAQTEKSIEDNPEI
T1 sequence (P14340 1398-1437): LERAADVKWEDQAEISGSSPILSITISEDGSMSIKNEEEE

Structure (SMILES)	IC50 (µM), DENV protease inhibitory activity
COc1ccc(OC)c(/C(C)=N/Nc2nc(-c3cccc([N+](=O)[O-])c3)cs2)c1 [3aa]	completely lost its activity

Same assay, conditions: IC50 (µM), DENV2 NS2B–NS3 protease inhibitory activity, 5 µM substrate, 10 nM NS2b-NS3pro, compounds at 1, 10 and 100 µM, 1 h at RT; compounds 3a-3r

Structure (SMILES)	IC50
Cc1ccc(/C=N/Nc2nc(-c3cccc([N+](=O)[O-])c3)cs2)cc1 [3a]	> 100 µM
Cc1cc(C)cc(/C=N/Nc2nc(-c3cccc([N+](=O)[O-])c3)cs2)c1 [3b]	> 100 µM
COc1ccccc1/C=N/Nc1nc(-c2cccc([N+](=O)[O-])c2)cs1 [3c]	229 µM
COc1ccc(OC)c(/C=N/Nc2nc(-c3cccc([N+](=O)[O-])c3)cs2)c1 [3d]	139 µM
COc1ccc(/C=N/Nc2nc(-c3cccc([N+](=O)[O-])c3)cs2)cc1OC [3e]	502 µM
O=[N+]([O-])c1cccc(-c2csc(N/N=C/c3ccccc3F)n2)c1 [3f]	117 µM
O=[N+]([O-])c1cccc(-c2csc(N/N=C/c3cccc(Cl)c3)n2)c1 [3g]	299 µM
O=[N+]([O-])c1cccc(-c2csc(N/N=C/c3ccccc3Br)n2)c1 [3h]	342 µM
O=[N+]([O-])c1cccc(-c2csc(N/N=C/c3cccc(Br)c3)n2)c1 [3i]	413 µM
Cc1ccc(/C=N/Nc2nc(-c3ccc(Cl)cc3)cs2)cc1 [3j]	603 µM
Cc1cc(C)cc(/C=N/Nc2nc(-c3ccc(Cl)cc3)cs2)c1 [3k]	> 100 µM
COc1ccccc1/C=N/Nc1nc(-c2ccc(Cl)cc2)cs1 [3l]	> 100 µM
COc1ccc(OC)c(/C=N/Nc2nc(-c3ccc(Cl)cc3)cs2)c1 [3m]	216 µM
COc1ccc(/C=N/Nc2nc(-c3ccc(Cl)cc3)cs2)cc1OC [3n]	248 µM
Fc1ccccc1/C=N/Nc1nc(-c2ccc(Cl)cc2)cs1 [3o]	> 100 µM
Clc1ccc(-c2csc(N/N=C/c3cccc(Cl)c3)n2)cc1 [3p]	> 100 µM
Clc1ccc(-c2csc(N/N=C/c3ccccc3Br)n2)cc1 [3q]	> 100 µM
Clc1ccc(-c2csc(N/N=C/c3cccc(Br)c3)n2)cc1 [3r]	> 100 µM

Same assay, conditions: IC50 (µM), DENV protease inhibitory activity, 5 µM substrate, 10 nM NS2b-NS3pro, compounds at 1, 10 and 100 µM, 1 h at RT; compounds 3ao–3av

Structure (SMILES)	IC50
C/C(=N\Nc1nc(-c2ccccc2)cs1)c1ccc(O)cc1 [3ao]	114 µM
C/C(=N\Nc1nc(-c2ccc(C)cc2)cs1)c1ccc(O)cc1 [3ap]	56 µM
C/C(=N\Nc1nc(-c2ccc(F)cc2)cs1)c1ccc(O)cc1 [3ar]	250 µM
C/C(=N\Nc1nc(-c2ccccc2)cs1)c1cc(O)cc(O)c1 [3as]	> 100 µM
C/C(=N\Nc1nc(-c2ccc(C)cc2)cs1)c1cc(O)cc(O)c1 [3at]	27.7 µM
C/C(=N\Nc1nc(-c2ccc(F)cc2)cs1)c1cc(O)cc(O)c1 [3av]	37.1 µM

Same assay, conditions: IC50 (µM), DENV protease inhibitory activity, 5 µM substrate, 10 nM NS2b-NS3pro, compounds at 1, 10 and 100 µM, 1 h at RT; compounds 3s-3an

Structure (SMILES)	IC50
COc1ccc(OC)c(/C(C)=N/Nc2nc(-c3cccc([N+](=O)[O-])c3)cs2)c1 [3aa]	> 100 µM
COc1ccc(/C(C)=N/Nc2nc(-c3cccc([N+](=O)[O-])c3)cs2)cc1OC [3ab]	31.4 µM
C/C(=N\Nc1nc(-c2cccc([N+](=O)[O-])c2)cs1)c1ccc(Cl)cc1 [3ac]	> 100 µM
C/C(=N\Nc1nc(-c2cccc([N+](=O)[O-])c2)cs1)c1ccc(F)cc1 [3ad]	> 100 µM
C/C(=N\Nc1nc(-c2ccc(Cl)cc2)cs1)c1ccc(C)cc1 [3ae]	> 100 µM
C/C(=N\Nc1nc(-c2ccc(Cl)cc2)cs1)c1ccc(O)cc1 [3af]	144 µM
C/C(=N\Nc1nc(-c2ccc(Cl)cc2)cs1)c1cc(O)cc(O)c1 [3ag]	92.3 µM
COc1cccc(/C(C)=N/Nc2nc(-c3ccc(Cl)cc3)cs2)c1 [3ah]	263 µM
COc1ccc(/C(C)=N/Nc2nc(-c3ccc(Cl)cc3)cs2)cc1 [3ai]	399 µM
COc1ccc(/C(C)=N/Nc2nc(-c3ccc(Cl)cc3)cs2)c(OC)c1 [3aj]	> 100 µM
COc1ccc(OC)c(/C(C)=N/Nc2nc(-c3ccc(Cl)cc3)cs2)c1 [3ak]	124 µM
COc1ccc(/C(C)=N/Nc2nc(-c3ccc(Cl)cc3)cs2)cc1OC [3al]	156 µM
C/C(=N\Nc1nc(-c2ccc(Cl)cc2)cs1)c1ccc(F)cc1 [3an]	> 100 µM
C/C(=N\Nc1nc(-c2cccc([N+](=O)[O-])c2)cs1)c1ccc(C)cc1 [3t]	113 µM
C/C(=N\Nc1nc(-c2cccc([N+](=O)[O-])c2)cs1)c1ccc(O)cc1 [3u]	28.7 µM
C/C(=N\Nc1nc(-c2cccc([N+](=O)[O-])c2)cs1)c1cc(O)cc(O)c1 [3v]	27.4 µM
COc1ccccc1/C(C)=N/Nc1nc(-c2cccc([N+](=O)[O-])c2)cs1 [3w]	193 µM
COc1cccc(/C(C)=N/Nc2nc(-c3cccc([N+](=O)[O-])c3)cs2)c1 [3x]	387 µM
COc1ccc(/C(C)=N/Nc2nc(-c3cccc([N+](=O)[O-])c3)cs2)cc1 [3y]	328 µM
COc1ccc(/C(C)=N/Nc2nc(-c3cccc([N+](=O)[O-])c3)cs2)c(OC)c1 [3z]	171 µM

Same assay, conditions: protease IC50, -H replaced by -CH3 at R1

Structure (SMILES)	fold improvement in potency in comparison with 3e
COc1ccc(/C(C)=N/Nc2nc(-c3cccc([N+](=O)[O-])c3)cs2)cc1OC [3ab]	~ 16 fold
